Data as given in ChEMBL document CHEMBL4184192, “5-HT1A and 5-HT2A receptors affinity, docking studies and pharmacological evaluation of a series of 8-acetyl-7-hydroxy-4-methylcoumarin derivatives” (Bioorg Med Chem, 2018).
Calls of active or inactive are those of the source. The calls are words filed in the database; no cut-off is given here.

Tests used:
[1] = molecular target: 5-hydroxytryptamine receptor 2A (Homo sapiens, UniProt P28223); assay: Displacement of [3H]-ketanserin from human 5-HT2A receptor expressed in CHO-K1 cell membranes after 60 mins by microbeta scintillation counting analysis; assay type: cell-based
[2] = molecular target: T1, 5-hydroxytryptamine receptor 1A (Homo sapiens, UniProt P08908); assay: Displacement of [3H]-8-OH-DPAT from human 5-HT1A receptor expressed in CHO-K1 cell membranes after 60 mins by microbeta scintillation counting analysis
T1 sequence (P08908 whole entry): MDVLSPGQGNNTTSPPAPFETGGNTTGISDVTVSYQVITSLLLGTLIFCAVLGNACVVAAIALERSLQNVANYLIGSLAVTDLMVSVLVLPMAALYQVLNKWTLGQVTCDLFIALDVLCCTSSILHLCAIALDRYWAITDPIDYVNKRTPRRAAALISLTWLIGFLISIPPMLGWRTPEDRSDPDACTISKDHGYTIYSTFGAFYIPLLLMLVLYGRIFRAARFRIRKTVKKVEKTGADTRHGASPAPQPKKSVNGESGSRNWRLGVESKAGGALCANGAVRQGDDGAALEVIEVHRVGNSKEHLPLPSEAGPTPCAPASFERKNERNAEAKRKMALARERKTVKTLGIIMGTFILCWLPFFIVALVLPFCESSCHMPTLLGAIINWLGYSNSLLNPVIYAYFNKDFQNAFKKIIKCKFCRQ

[3] = molecular target: T2, 5-hydroxytryptamine receptor 1A (Rattus norvegicus, UniProt P19327); assay: Agonist activity at 5-HT1A receptor in Sprague-Dawley rat hippocampal membranes after 90 mins by microbeta scintillation counting based [35S]GTPgammaS binding assay; assay type: functional
T2 sequence (P19327 whole entry): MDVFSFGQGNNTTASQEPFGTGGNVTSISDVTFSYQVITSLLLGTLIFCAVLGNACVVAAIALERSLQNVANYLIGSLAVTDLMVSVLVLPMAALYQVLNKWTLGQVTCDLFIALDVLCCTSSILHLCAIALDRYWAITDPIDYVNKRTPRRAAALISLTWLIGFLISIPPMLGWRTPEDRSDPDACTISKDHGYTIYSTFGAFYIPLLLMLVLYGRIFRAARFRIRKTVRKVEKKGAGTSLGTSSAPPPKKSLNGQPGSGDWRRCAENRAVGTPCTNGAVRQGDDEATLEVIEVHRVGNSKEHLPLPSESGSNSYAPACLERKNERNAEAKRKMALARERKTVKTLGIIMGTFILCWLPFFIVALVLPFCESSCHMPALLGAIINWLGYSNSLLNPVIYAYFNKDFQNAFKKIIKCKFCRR

Mus musculus [4] = assay: Toxicity in Balb/c mouse assessed as alterations in visible locomotor activity at 0.3 to 10 mg/kg, ip administered 30 mins prior to test; assay type: organism-based; conditions: in vivo, 0.5 h
[5] = molecular target: T3, 5-hydroxytryptamine receptor 1A (Rattus norvegicus) (UniProt P19327); assay: Antagonist activity at 5-HT1A receptor in Sprague-Dawley rat hippocampal membranes assessed as inhibition of 8-OH-DPAT-induced receptor activation at 10^-10 to 10^-5 M after 90 mins by microbeta scintillation counting based [35S]GTPgammaS binding assay relative to control; assay type: functional
T3 sequence (whole entry): T2 sequence (P19327 whole entry)

Mus musculus [6] = assay: Toxicity in Balb/c mouse assessed as alterations in despair-related locomotor activity at 0.3 to 10 mg/kg, ip administered 30 mins prior to test; assay type: organism-based; conditions: in vivo, 0.5 h
[7] = molecular target: T2, 5-hydroxytryptamine receptor 1A; assay: Antagonist activity at 5-HT1A receptor in Sprague-Dawley rat hippocampal membranes assessed as inhibition of 8-OH-DPAT-induced receptor activation after 90 mins by microbeta scintillation counting based [35S]GTPgammaS binding assay; assay type: functional
[8] = molecular target: T3, 5-hydroxytryptamine receptor 1A (Rattus norvegicus); assay: Agonist activity at 5-HT1A receptor in Sprague-Dawley rat hippocampal membranes at 10^-10 to 10^-5 M after 90 mins by microbeta scintillation counting based [35S]GTPgammaS binding assay relative to control; assay type: functional
Mus musculus [9] = assay: Pro-depressant activity in Balb/c mouse assessed as decrease in immobility time at 3 to 10 mg/kg, ip administered 30 mins prior to test measured for 6 mins by tail suspension test; assay type: ADME, organism-based; conditions: in vivo, 0.1 h
Mus musculus [10] = assay: Pro-depressant activity in Balb/c mouse assessed as decrease in immobility time administered ip 30 mins prior to test measured for 6 mins by tail suspension test; assay type: ADME, organism-based; conditions: in vivo, 0.1 h
Mus musculus [11] = assay: Antidepressant activity in Balb/c mouse assessed as decrease in immobility time at 0.3 to 1 mg/kg, ip administered 30 mins prior to test measured for 6 mins by tail suspension test; assay type: functional, organism-based
Mus musculus [12] = organism: Mus musculus; assay: Pro-depressant activity in Balb/c mouse assessed as decrease in home cage activity; assay type: ADME, organism-based; conditions: in vivo
Mus musculus [13] = assay: Antidepressant activity in Balb/c mouse assessed as decrease in immobility time administered ip 30 mins prior to test measured for 6 mins by tail suspension test; assay type: functional, organism-based

Chain of 5-hydroxytryptamine receptor 2A (P28223 whole entry): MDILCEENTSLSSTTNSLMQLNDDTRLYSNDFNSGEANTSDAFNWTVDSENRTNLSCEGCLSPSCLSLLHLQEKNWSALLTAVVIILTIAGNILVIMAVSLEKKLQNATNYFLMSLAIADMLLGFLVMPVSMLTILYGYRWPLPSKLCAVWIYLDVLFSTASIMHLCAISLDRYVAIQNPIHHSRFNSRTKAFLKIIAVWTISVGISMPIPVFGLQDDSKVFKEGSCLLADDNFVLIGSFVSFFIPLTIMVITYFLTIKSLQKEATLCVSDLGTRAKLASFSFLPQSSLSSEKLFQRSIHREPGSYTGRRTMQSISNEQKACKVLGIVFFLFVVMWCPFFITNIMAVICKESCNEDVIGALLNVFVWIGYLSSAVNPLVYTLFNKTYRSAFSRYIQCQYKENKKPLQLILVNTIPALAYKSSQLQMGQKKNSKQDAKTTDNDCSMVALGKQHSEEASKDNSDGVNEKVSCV

| Compound | Ki [1] [nM] | Ki [2] [nM] | also measured |
| --- | --- | --- | --- |
| CC(=O)c1c(OCCCCN2CCN(c3cc(C)cc(C)c3)CC2)ccc2c(C)cc(=O)oc12 | 58 | 3.7 | – |
| CC(=O)c1c(OCCCCN2CCN(c3ccccc3Cl)CC2)ccc2c(C)cc(=O)oc12 | 20 | 0.9 | – |
| COc1ccccc1N1CCN(CCCCOc2ccc3c(C)cc(=O)oc3c2C(C)=O)CC1 | 56 | 1 | – |
| COc1ccccc1N1CCN(CCCOc2ccc3c(C)cc(=O)oc3c2C(C)=O)CC1 | 8 | 0.6 | EC50 [3]: 2 nM; Activity (Mus musculus [4]): Non-Toxic; inhibition [5]: 70%; Activity (Mus musculus [6]): Non-Toxic; EC50 [7]: 631 nM; Emax [8]: 108% |
| CC(=O)c1c(OCCCN2CCN(c3cccc(Br)c3)CC2)ccc2c(C)cc(=O)oc12 | 6 | 3.5 | – |
| CC(=O)c1c(OCCCCN2CCN(c3ccccc3C(F)(F)F)CC2)ccc2c(C)cc(=O)oc12 | 48.7 | 11 | – |
| CC(=O)c1c(OCCCCN2CCN(c3ccccc3Br)CC2)ccc2c(C)cc(=O)oc12 | 10 | 1.5 | – |
| CC(=O)c1c(OCCCCN2CCN(c3cccc(F)c3)CC2)ccc2c(C)cc(=O)oc12 | 400 | 50 | – |
| CC(=O)c1c(OCCCN2CCN(c3cc(C)cc(C)c3)CC2)ccc2c(C)cc(=O)oc12 | 12.5 | 0.9 | – |
| CC(=O)c1c(OCCCCN2CCN(c3cccc(Br)c3)CC2)ccc2c(C)cc(=O)oc12 | 6.5 | 2.5 | – |
| CC(=O)c1c(OCCCN2CCN(c3ccccc3Cl)CC2)ccc2c(C)cc(=O)oc12 | 22 | 2 | – |
| CC(=O)c1c(OCCCN2CCN(c3ccccc3Br)CC2)ccc2c(C)cc(=O)oc12 | 7 | 0.5 | EC50 [3]: 39.8 nM; Activity (Mus musculus [9]): Toxic; Activity (Mus musculus [10]): Dose-dependent effect; inhibition [5]: 82%; EC50 [7]: 126 nM; Activity (Mus musculus [11]): inactive; Emax [8]: 112%; Activity (Mus musculus [12]): Toxic |
| CC(=O)c1c(OCCCN2CCN(c3cccc(F)c3)CC2)ccc2c(C)cc(=O)oc12 | 408 | 1350 | – |
| CNCCC(Oc1ccc(C(F)(F)F)cc1)c1ccccc1 (configuration not stated) | – | – | Activity (Mus musculus [13]): Dose-dependent effect |
| CC(=O)c1c(OCCCCN2CCN(c3cc(C)ccc3C)CC2)ccc2c(C)cc(=O)oc12 | 46.8 | 5.4 | – |
| CC(=O)c1c(OCCCN2CCN(c3ccccc3C(F)(F)F)CC2)ccc2c(C)cc(=O)oc12 | 20 | 8.8 | – |
| CC(=O)c1c(OCCCN2CCN(c3cc(C)ccc3C)CC2)ccc2c(C)cc(=O)oc12 | 102 | 14 | – |
